Reference: US10583210B2, “Auger electron therapy for glioblastoma” (Syddansk Universitet, priority 2014, dated 2020)
“Also recorded” adds a separate entry of the source.

Legend:
[1] = system: T87 glioblastoma cells; assay: CellTiter Blue viability assay, T87 cells; assay type: cell-based, human
Description: (§1) Cells were cultured as free-floating spheroids in the absence of serum at 36° C. in a humidified incubator with 5% CO2. Two GSCs passage 9-12, designated […], were utilized. They were established, as previously described in our laboratory in 2009 ([…]) and 2010 ([…]), in accordance with the Regional Scientific Ethical Committee (approval number S-VF-20040102). They have; the ability to form new spheroids at clonal density, a karyotype typical of GBMs, the ability to differentiate into cells expressing neuronal, astrocytic and oligodendrocyte markers upon culturering in serum-containing medium and the ability to form highly invasive tumors upon orthotopic xenografting (exemplified for the […] GCS in Supplementary FIG. 1). […] The cells were then incubated in serum-free medium or serum-free medium containing either the non-radioactive, but chemically identical ^[…]-UdR (0.3 μg/ml, Sigma-Aldrich), or increasing activities of ^125I-UdR (0-3 kBq/ml). At day 7, 20 μl of CellTiter Blue (Promega) was added and the cells were returned to the incubator for 6 hours prior to recording of the fluorescence in a Victor3 Multilabel Plate Reader (PerkinElmer Life Sciences).

[2] = system: T87 GBM cells; assay: 125I-UdR incorporation after MTX/F-UdR exposure, T87 (gammacounter); assay type: cell-based, human; conditions: for 125I-UdR incorporation compared to non-treated control cells: 1 hour pre-treatment with 1 μM, 16 h later 100 Bq/mL 125I-UdR for 72 h
Description: A) 1 hour pre-treatment of T87 GBM cells in vitro with 1 μM MTX or F-UdR before ^125I-UdR exposure increased the ^125I incorporation in the cells. […] The incorporation rate was determined by a gammacounter. […] F-UdR was effective in concentrations ≥1 nM while MTX was effective at ≥10 nM. At a F-UdR concentration of 10 μM, the 125I-incorporation declined presumably do to toxic effects from the F-UdR. […] Opposed to the T87 cell line, the T86 cell line is also known to have an unmethylated MGMT promoter region, thereby being less responsive to TMZ chemotherapy.

[3] = system: orthotopic xenografted GBM (evolved from the T87 GSC); assay: Therapeutic study in orthotopic xenografted GBM-bearing nude rats (PET, survival, histology)
Description: All animal procedures were conducted in accordance with the obtained approval from the national Animal Experiments Inspectorate (permission J. Nr. 2008/561-1572). Male athymic nude rats (n=24) aged six weeks (Hsd:RH-Foxnl mu, Harlan laboratories) were anaesthetized subcutaneously (mixture of Hypnorm and Midazolam) and placed in a small animal stereotaxic instrument (Model 900, David Kopf Instruments). Through a midline scalp incision, the bregma was exposed, and one mm anteriorly and two mm laterally to this a burr hole was made. A blunt cannula (Hamilton 7102 syringe) was then advanced to a depth of 3.5 mm (right striatum), and a 2 μl cell suspension of 300,000 T87 single cells in Hank's Balanced Salt Solution (Gibco) supplemented with 0.9% glucose (SAD 500 mg/ml) was slowly injected. After removal of the cannula, the skin was closed with VICRYL 5.0 (Ethicon) disrupted sutures. Two weeks after tumor-cell inoculation, a SMP-200 iPRECIO® Micro Infusion Pump (Data Sciences International) was implanted subcutaneously, since preliminary experiments had shown establishment of tumors at this time point. Infusion protocols (instant mode, constant flow mode and 5 μl/hour infusion rate) were downloaded, and the pumps were conditioned according to Low Flow Infusion Standard Operational Procedure. Rats were anaesthetized and fixated as described above. The midline incision was re-incised and the burr hole was identified. A 4 mm pump connector cannula (PlasticsOne model 328OPM/PK/Spc) was then connected to the pump catheter and implanted (according to the manufactures Technical Note 6) with the tip of the cannula in the center of the bulk tumor. Pumps were loaded with isotone saline (n=8, group I) or 0.1 mM MTX (Sigma-Aldrich) (n=16, group II and III). Finally, the skin was closed with VICRYL 5.0 disrupted sutures. As one of the rats with an MTX loaded pump never woke up after surgery it was censored from the study. Two days later the 23 rats were anaesthetized using isoflurane, and residual saline or MTX was extracted from the pump reservoirs according to the manufacturer's instructions. The reservoirs were refilled with 960 μl of 0.3 μg/m ^127I-UdR (n=8, group I) or twice with the ^125I-UdR activity (n=15, group II and III), enabling 8 days of continuous infusion and a cumulated infused ^125I-UdR activity of 83±7 MBq.
Rats were fed ad libitum and to block the thyroid gland, KI (Sigma-Aldrich) was added to the drinking water (1 mg/ml) from the day of pump implantation and the following 14 days. At the end of the observation period (180 days after completion of treatment) or once animals reached the pre-determined humane endpoints (neurological deficits or >20% weight-loss) they were anaesthetized by isoflurane and euthanized by intravenous pentobarbital injection.
For tumor response evaluation, the animals were PET scanned biweekly in the initial phase and later every third week using the Inveon PET scanner. […] After the tracer injection pairs of animals were placed head-to-head in the scanner and at 40 min. post injection a 14 min. static scan was performed. The acquired data were reconstructed using the ordered subset expectation maximization in two dimensions algorithm without scatter and attenuation correction in the Inveon Acquisition Workplace software module (Siemens).
Brain, thyroid gland, liver and kidneys were removed post-mortem and fixed in 4% formaldehyde. After fixation, brains were divided in one mm thick coronal sections using a rat brain matrix (PlaticsOne) followed by paraffin embedment. […] Three μm sections were cut and all sections were stained with HE for morphological evaluation.

[4] = system: TE-671 human rhabdomyosarcoma cells; conditions: IT bolus of 125I-UdR, IT infusion of MTX; cited from earlier work
[5] = Adverse effect evaluation (blood samples, post-mortem histology); assay type: in vivo, athymic nude rats
[6] = system: T87 spheroids; assay: 2D spheroid migration assay, T87; assay type: cell-based, human; conditions: for spheroid migration: 3 kBq/ml 125I-UdR or 0.3 μg/ml 127I-UdR, day 0-5, effect from day three
Description: (§2) Geltrex (Gibco) and serum-free medium was mixed (1+49) and 1.4 ml was added to each well in 12-well plates. Coated plates were incubated over night at 36° C. and the following morning the supernatant was aspirated. Then, one spheroid (100-200 μm) was aspirated into a 0.1-2.0 μl pipette and meticulously embedded in the coating. After incubating the plate for 75 minutes at 36° C., 800 μl serum-free medium was added. When spheroids started migrating (designated day 0) additionally 200 μl of serum-free medium (serving as untreated controls), ^127I-UdR or ^125I-UdR was added resulting in a final concentration of 0.3 μg/ml or 3 kBq/ml of ^127I-UdR or ^125I-UdR, respectively. Images were obtained daily from day 0 to day 5 using a Leica DM IRB inverted phase-contrast microscope, a Leica DFC300FX camera, and the Leica Application Suite version 2.6.0 RI computer software. The radius of the spheroids was determined (http://imagej.nih.gov/ij/) and the migration speed/day was calculated.

[7] = system: C6 glioma; conditions: local implant, 7.4 MBq 125I-UdR, passive diffusion; cited from earlier work
[8] = system: T78 spheroids; assay: 2D spheroid migration assay, T78; assay type: cell-based, human; conditions: 3 kBq/ml 125I-UdR, from day three, vs 127I-UdR treated spheroids
Description: as §2

[9] = Intracerebral distribution by SPECT/CT; assay type: in vivo, athymic nude rats; conditions: constant intratumoral CED for 8 days, last day of infusion
Description: The intracranial distribution of infused ^125I-UdR was measured at the last day of infusion using a Siemens Inveon Small Animal PET/SPECT/CT scanner. The animals were anesthetized using isoflurane and subsequently SPECT scanned for approximately 42 min using 1.8 mm pinhole collimators (3×1.8 RWB collimators) with 30 projections in 180 degrees rotation. […] In one of the animals a low-dose CT scan was performed in combination with the SPECT scan to visualize the surrounding cranium.

[10] = system: T78 glioblastoma (GBM) cells; assay: CellTiter Blue viability assay, T78 cells; assay type: cell-based, human
Description: as §1

[11] = co-incubation with 18.5 KBq/mL 125I-UdR for 4 hours

O=c1[nH]c(=O)n([C@H]2C[C@H](O)[C@@H](CO)O2)cc1F [F-UdR, 5-Fluoro-2′-deoxyuridine]
killing effect compared with MTX ([1]; T87, 7 days exposure): stronger killing effect | 125I-UdR incorporation compared to non-treated control cells [2]: significantly increase | concentration effective in increasing 125I incorporation [2, 11]: ≥ 1 nM | 125I-incorporation at 10 μM ([2]; co-incubation with 18.5 KBq/mL 125I-UdR for 4 hours, presumably toxic effects): declined

Cn1nnc2c(C(N)=O)ncn2c1=O [TMZ, temozolomide]
maximum survival extrapolated for TMZ monotherapy ([3]; extrapolating the U87MG data to the present findings): 66 days | median survival ([3]; orthotopic GBM rat model, KM-survival plot FIG. 14): 47 days

CN(Cc1cnc2nc(N)nc(N)c2n1)c1ccc(C(=O)N[C@@H](CCC(=O)O)C(=O)O)cc1 [MTX, methotrexate]
125I-UdR incorporation compared to non-treated control cells [2]: significantly increase | concentration effective in increasing 125I incorporation [2, 11]: ≥ 10 nM | median time to onset of paralysis [4]: no significant effect

O=c1[nH]c(=O)n([C@H]2C[C@H](O)[C@@H](CO)O2)cc1I [^127I-UdR, 5-iodo-2′-deoxyuridine]
animals with dark neurons in the hippocampus (CA3 region) ([5]; HE stained brain sections): 4/8 | animals with dark neurons in the neocortex ([5]; HE stained brain sections): 7/8 | thyroid gland histology ([5]; HE stained sections): normofollicular architecture | liver histology (hepatocyte necrosis, haemorrhage, inflammation) ([5]; PAS-diastase staining): no signs of hepatocyte necrosis, haemorrhage or inflammation | spheroid migration [6]: unaffected | animals surviving the entire observation period of 180 days [7]: No ^127I-UdR treated animal survived the entire observation period | median survival [7]: 20 days | animals developing a PET-detectable tumor / tumor progression by [11C]MeAIB PET ([3]; 180 days observation period): rapidly progressed | animals surviving the entire observation period ([3]; 180 days, surviving/total animals): 0/8 | time from therapy initiation to the first PET-based tumor detection ([3]; [11C]MeAIB PET): 21 days | post-mortem histology of the brains ([3]; anti-human vimentin staining): very large tumors | longest survival after initiation of treatment ([3]; death due to massive tumor burden): ≤ 23 days

O=c1[nH]c(=O)n([C@H]2C[C@H](O)[C@@H](CO)O2)cc1[125I] [^125I-UdR, 5-[^125I]iodo-2′-deoxyuridine]
IC50 (cell viability) ([1]; T87, 7 days exposure, non-linear regression, range printed 99-120 Bq/mL): 109 Bq/mL | cell survival compared to untreated controls ([1]; T87, day 7, most activity concentrations (0-3 kBq/ml), p<0.0001): significantly decreased | activity concentrations with highly significant effect compared to 127I-UdR ([1]; T87, p<0.0001): ≥ 100 Bq/ml | spheroid migration [8]: significantly reduced | 125I in the tumor region by SPECT/CT [9]: high concentration | spheroid migration [6]: significantly reduced; also recorded: clearly inhibited | spheroid expansion in size ([6]; vs untreated or 127I-UdR exposed spheroids): not able to expand in size | animals surviving the entire observation period of 180 days [7]: 20% | median survival [7]: 35 days | cell survival compared to untreated controls ([10]; T78, day 7, most activity concentrations (0-3 kBq/ml), p<0.0001): significantly decreased | activity concentrations with highly significant effect compared to 127I-UdR ([10]; T78, p<0.0001): ≥ 100 Bq/ml
